Data reported in the NIST ThermoML archive (doi:10.1016/j.jct.2019.04.018).
± gives the expanded uncertainty stated by the source.

Experiments:
[1] = 100 kPa, Liquid; for viscosity: Capillary tube (Ostwald / Ubbelohde) method; for speed of sound: Frequency=2 MHz, Single path-length method; for mass density: Vibrating tube method
[2] = xn = mol fraction of the nth substance listed; settings: 100 kPa, Liquid; for viscosity: Capillary tube (Ostwald / Ubbelohde) method; for speed of sound: Frequency=2 MHz, Single path-length method; for mass density: Vibrating tube method

Compound | viscosity ([1]; 303.15 K) [mPa·s] | speed of sound ([1]; 303.15 K) [m/s] | mass density ([1]; 303.15 K) [kg/m3] | viscosity ([1]; 308.15 K) [mPa·s] | speed of sound ([1]; 308.15 K) [m/s] | mass density ([1]; 308.15 K) [kg/m3] | viscosity ([1]; 313.15 K) [mPa·s] | speed of sound ([1]; 313.15 K) [m/s] | mass density ([1]; 313.15 K) [kg/m3] | other results
C=COCCCC [1-(ethenyloxy)butane] | 0.386 ± 0.015 | 1086 ± 6 | 769 ± 1.2 | 0.373 ± 0.015 | 1076 ± 6 | 763.9 ± 1.2 | 0.352 ± 0.015 | 1066 ± 6 | 758.8 ± 1.2 | 
COc1ccccc1 [anisole] | 0.929 ± 0.015 | 1386 ± 5 | 984.4 ± 1.1 | 0.849 ± 0.015 | 1366 ± 5 | 979.8 ± 1.1 | 0.788 ± 0.015 | 1348 ± 5 | 975 ± 1.1 | 
COc1ccccc1 [anisole] + C=COC(C)=O |  |  |  |  |  |  |  |  |  | viscosity ([2]; 303.15 K, x2 = 0): 0.929 ± 0.015 mPa·s; speed of sound ([2]; 303.15 K, x2 = 0): 1386 ± 5 m/s; mass density ([2]; 303.15 K, x2 = 0): 984.4 ± 1.1 kg/m3; viscosity ([2]; 308.15 K, x2 = 0): 0.849 ± 0.015 mPa·s; speed of sound ([2]; 308.15 K, x2 = 0): 1366 ± 5 m/s; mass density ([2]; 308.15 K, x2 = 0): 979.8 ± 1.1 kg/m3; viscosity ([2]; 313.15 K, x2 = 0): 0.788 ± 0.015 mPa·s; speed of sound ([2]; 313.15 K, x2 = 0): 1348 ± 5 m/s; mass density ([2]; 313.15 K, x2 = 0): 975 ± 1.1 kg/m3
CC(C)OC(C)C [diisopropyl ether] | 0.301 ± 0.014 | 982 ± 6 | 713.1 ± 1.2 | 0.287 ± 0.014 | 962 ± 6 | 707.9 ± 1.2 | 0.276 ± 0.014 | 942 ± 6 | 702.5 ± 1.2 | 
CC(C)OC(C)C [diisopropyl ether] + C=COC(C)=O |  |  |  |  |  |  |  |  |  | viscosity ([2]; 303.15 K, x2 = 0): 0.301 ± 0.014 mPa·s; speed of sound ([2]; 303.15 K, x2 = 0): 982 ± 6 m/s; mass density ([2]; 303.15 K, x2 = 0): 713.1 ± 1.2 kg/m3; viscosity ([2]; 308.15 K, x2 = 0): 0.287 ± 0.014 mPa·s; speed of sound ([2]; 308.15 K, x2 = 0): 962 ± 6 m/s; mass density ([2]; 308.15 K, x2 = 0): 707.9 ± 1.2 kg/m3; viscosity ([2]; 313.15 K, x2 = 0): 0.276 ± 0.014 mPa·s; speed of sound ([2]; 313.15 K, x2 = 0): 942 ± 6 m/s; mass density ([2]; 313.15 K, x2 = 0): 702.5 ± 1.2 kg/m3
C=COC(C)=O [vinyl acetate] | 0.388 ± 0.014 | 1092 ± 5 | 919.4 ± 1.1 | 0.37 ± 0.014 | 1074 ± 5 | 913.5 ± 1.1 | 0.352 ± 0.014 | 1054 ± 5 | 907.3 ± 1.1 | 
C=COC(C)=O [vinyl acetate] + C=COCCCC |  |  |  |  |  |  |  |  |  | viscosity ([2]; 303.15 K, x1 = 1): 0.388 ± 0.014 mPa·s; speed of sound ([2]; 303.15 K, x1 = 1): 1092 ± 5 m/s; mass density ([2]; 303.15 K, x1 = 1): 919.4 ± 1.1 kg/m3; viscosity ([2]; 308.15 K, x1 = 1): 0.37 ± 0.014 mPa·s; speed of sound ([2]; 308.15 K, x1 = 1): 1074 ± 5 m/s; mass density ([2]; 308.15 K, x1 = 1): 913.5 ± 1.1 kg/m3; viscosity ([2]; 313.15 K, x1 = 1): 0.352 ± 0.014 mPa·s; speed of sound ([2]; 313.15 K, x1 = 1): 1054 ± 5 m/s; mass density ([2]; 313.15 K, x1 = 1): 907.3 ± 1.1 kg/m3
